Results published in patent US8044057B2, “Methods for suppressing an immune response or treating a proliferative disorder” (The United States of America as represented by the …, priority 2003, dated 2011).
pIC50: −log10 of the molar value.

Tests used:
[1] = test system: P70 S6 kinase; test: Western blot of phospho-p70 S6 kinase T389 in PASM cells; format: cell-based, human
Experimental: FIGS. 4A-4D are bar graphs and digital images showing that LY303511 inhibits serum-stimulated phosphorylation of S6K and Akt (FIGS. 4A and 4B), as well as proliferation in PASM cells (FIGS. 4C and 4D). After incubation in serum-free medium for 24 hours, PASM cells were incubated without or with 100 μM LY303511, rapamycin, 200 ng/ml, or 200 nM wortmannin (FIG. 4A), or 0-100 μM LY303511 (FIG. 4B), for 1 hour before the addition of 10% FBS for 30 min and preparation of cell lysates. Equal amounts of protein (20 μg/gel) were separated by SDS-PAGE and transferred to nitrocellulose membranes before immunodetection of phospho-p70 S6 kinase T389 (pS6K) orphospho-Akt S473 (pAkt) by Western blot. Data are from one experiment representative of five.
HPASM cells were purchased from Clonetics and passaged according to the manufacturer's instructions. Cells were plated in 100 mm dishes, and allowed to grow to near confluence before serum starvation for 24 hours. […] Cells were homogenized and the indicated proteins were detected by Western blot.
Measurement of protein phosphorylation: A549 cells were incubated in serum-free medium without or with inhibitors for 1 hour, as indicated, before incubation for 30 minutes with a mixture of LPS, 100 μg/ml (Sigma; St. Louis, Mo.) and IFN-γ, 100 U/ml (Roche; Nutley, N.J.). […] Integrated band densities were quantified using Scion Image beta 3b software.

[2] = test system: mTOR; test: Western blot of phospho-mTOR S2481 in PASM cells; format: cell-based, human
Experimental: HPASM cells were purchased from Clonetics and passaged according to the manufacturer's instructions. Cells were plated in 100 mm dishes, and allowed to grow to near confluence before serum starvation for 24 hours. Inhibitors were added to the media 1 hour before the addition of 10% FBS for 30 minutes. Cells were homogenized and the indicated proteins were detected by Western blot.
Measurement of protein phosphorylation: A549 cells were incubated in serum-free medium without or with inhibitors for 1 hour, as indicated, before incubation for 30 minutes with a mixture of LPS, 100 μg/ml (Sigma; St. Louis, Mo.) and IFN-γ, 100 U/ml (Roche; Nutley, N.J.). PASM cells were incubated in serum-free medium without or with inhibitors for 24 h as indicated, before incubation for 30 min with 10% FBS. A549 or PASM cells were washed once with cold PBS and incubated for 15 minutes on ice ih lysis buffer (20 mM Tris pH 8.0, 1% Nonidet P-40, 1 mM EDTA, 5 mM benzamidine, aprotinin, 10 μg/ml, leupeptin, 10 μg/ml, trypsin soybean inhibitor, 1 mM PMSF, 50 mM sodium fluoride, 100 μM sodium orthovanadate, and 1: 100 Sigma phosphatase inhibitor set I containing cantharidin, microcystin LR and bromotetramizole). After freezing and thawing, lysates were centrifuged for 30 min at 16,000×g before protein measurement and storage at −80° C. […] Integrated band densities were quantified using Scion Image beta 3b software.

[3] = target: T1, recombinant CK2 (Homo sapiens, UniProt P68400); test: Casein kinase 2 activity kit, 32P incorporation into substrate peptide; format: biochemical
T1 construct: purchased Upstate Biotechnology 17-132 (number of the activity kit, not of the enzyme)
T1 sequence (P68400 whole entry): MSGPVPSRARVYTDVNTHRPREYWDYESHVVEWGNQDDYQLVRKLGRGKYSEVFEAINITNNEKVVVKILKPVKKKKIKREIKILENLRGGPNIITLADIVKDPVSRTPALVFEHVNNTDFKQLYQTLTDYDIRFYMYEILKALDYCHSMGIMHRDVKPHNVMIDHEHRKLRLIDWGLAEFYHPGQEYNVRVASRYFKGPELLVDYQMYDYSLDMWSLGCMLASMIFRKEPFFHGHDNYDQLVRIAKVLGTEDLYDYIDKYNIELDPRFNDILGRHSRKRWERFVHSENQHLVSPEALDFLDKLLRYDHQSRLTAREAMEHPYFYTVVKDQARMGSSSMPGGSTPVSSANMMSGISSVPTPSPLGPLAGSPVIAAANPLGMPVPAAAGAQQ
T1 sequence (P67870 2-215 partner limits assumed): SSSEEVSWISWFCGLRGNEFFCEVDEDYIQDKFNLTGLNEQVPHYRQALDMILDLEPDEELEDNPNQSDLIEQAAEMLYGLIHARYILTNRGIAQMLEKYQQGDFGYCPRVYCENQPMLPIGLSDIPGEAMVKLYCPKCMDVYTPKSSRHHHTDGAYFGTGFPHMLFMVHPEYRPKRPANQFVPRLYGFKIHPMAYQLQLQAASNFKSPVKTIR
Experimental: FIGS. 5A-5B are bar graphs showing that LY303511 inhibits the cell cycle by causing combined G1 and G2/M arrest and that LY303511 inhibits CK2 activity. For the data shown in FIG. 5A, PASM cells were cultured in medium with FBS for 48 hours before the addition of 0-100 μM LY303511 without or with raparnycin, 400 ng/ml, for 24 hours. Cells were then harvested and incubated with propidium iodide for 2 hours before counting using a Becton-Dickson FACSCalibur. Data are the means (±SEM) of percentages of cells in G1, S, or G2/M phase of the cell cycle in three experiments with duplicate assays. *p<0.05 vs. DMSO control, or †p<0.05 vs. 10 μM LY303511, by Student's t—test. FIG. 5B is a bar graph showing that LY303511 or LY294002 inhibits CK2 in vitro. As per the manufacturer (Upstate Biotechnologies), 0 or 100 ng of recombinant CK2 were incubated with CK2 substrate peptide and ^32P-γ-ATP for 10 min with 1% DMSO or inhibitors as indicated. Data are the means of values for samples with inhibitors expressed as percentage of that for control, which was (mean±SEM) 0.2±0.03 pmol phosphate/100 ng protein/10 min. Data are from three experiments performed in duplicate. *p<0.05 by Student's t-test when compared to DMSO control.
One specific assay for casein kinase 2 activity is available commercially as a kit from Upstate Biotechnology (New York). The assay is based on phosphorylation of a specific substrate (CK-2 substrate peptide) using the transfer of the gamma-phosphate of ^32P-ATP by casein kinase 2 during a 10 minute incubation at 30° C. The phosphorylated substrate is then separated from the residual ^32P-ATP using P81 phosphocellulose paper, and quantified by scintillation counting.
Casein kinase 2 (CK2) activity (counts per rninute) was measured using a casein kinase 2 activity kit (Upstate Biotechnology catalogue number 17-132) by incubating recombinant 100 ng CK2, magnesium/ATP cocktail (10 mcCi ^32P-garnma-ATP, 0.675 micromoles MgCl2, 4.5 nmoles ATP), and 10 micromoles peptide substrate (arnino acid sequence RRRDDDSDDD (SEQ ID NO: 1) in 50 mcl assay buffer without or with the indicated concentrations of DMSO (1%), LY294002, LY303511, or rapamycin for 10 minutes at 30° C. Assays were stopped with 20 mcl of 40% trichloroacetic acid, and 25 mcl were spotted on P81 phosphocellulose paper squares before washing 3 times with 0.75% phosphoric acid, and once with acetone. 32P incorporation on the substrate peptide was detected by counting the phosphocellulose squares in 5 ml scintillation fluid using a Packard 100 Tri-Carb liquid scintillation counter.
Measurement of casein kinase 2 (CK2) activity: CK2 activity (counts per minute) was measured using a CK2 activity kit (Upstate, Charlottesville, Va.) by incubating 100 ng of recombinant CK2, rnagnesium/ATP cocktail (10 μCi ^32P-gamma-ATP, 0.675 μmol MgCl2, 4.5 nmol ATP), and 10 μmol peptide substrate (amino acid sequence RRRDDDSDDD) in 50 μl assay buffer (20 mM MOPS, pH 7.2, 5 mM EGTA, 25 mM β-glycerol phosphate, 1 mM sodium orthovanadate, 1 mM dithiothreitol) without or with the indicated concentrations of LY294002, LY303511, wortmannin or rapamycin in 1% DMSO for 10 min at 30° C. Assays were stopped with 20 μl of 40% trichloroacetic acid, and samples (25 μl) of supernatant were applied to P81 phosphocellulose paper squares, which were then washed three times with 0.75% phosphoric acid, and once with acetone. ^32P in the substrate peptide was quantified using a Packard 100 Tri-Carb liquid scintillation counter on phosphocellulose squares in 5 ml of scintillation fluid. Activity is expressed as pmol phosphate incorporated per 10 minutes. CK2 activity measured in the presence of inhibitors was divided by that measured for the DMSO control (=100% control).

O=c1cc(N2CCNCC2)oc2c(-c3ccccc3)cccc12 [LY303511, 2-(4-piperazinyl)-8-phenyl-4H-1-benzopyran-4-one]
pIC50 ([1]; Homo sapiens, pulmonary artery smooth muscle cells, densitometry, read-out: IC50 for inhibition of S6K phosphorylation): ~6.00
basal and serum-stimulated phosphorylation of P70 S6 kinase ([1]; PASM cells, 10% FBS for 30 minutes): inhibited basal and serum-stimulate phosphorylation of P70 S6 kinase
serum-stimulated phosphorylation of mTOR at S2481 [2]: inhibited serum-stimulated phosphorylation of mTOR at S2481
CK2 activity ([3]; 100 ng recombinant CK2, 10 min at 30° C.): concentration-dependent inhibition of CK2 activity
preferential inhibition as compared to PI3K ([3]; P70 S6 kinase and casein kinase 2 versus PI3K): preferentially inhibits P70 S6 kinase and casein kinase 2 as compared to PI3K
pIC50 ([3]; recombinant CK2 in vitro, read-out: IC50 for casein kinase 2): 4.00 to 5.00
